Results: patent US6303612A, “Derivatives of hydroxyphenylsulfanylbenzoic and hydroxphenylsulfanylarylacetic acids” (Leciva, A.S., priority 1998, dated 2001)
pIC50: −log10 of the molar value. Converted amounts (≈) assume the structure as drawn. Where two headings read alike, the source gives them in different places.

Key:
[1] = tested on: peroxidation of lipids from the hepatic cells membranes; experiment: Antioxidant effect in vitro; type: biochemical; conditions: at 100 μg
Description: Antioxidant Effect in vitro
The end-product, malonic dialdehyde, was transformed to coloured complex with thiobarbituric acid and determined spectrophotometrically. The antioxidant effect was expressed in % of peroxidation inhibition in the presence of the compound tested in comparison to a control sample.

[2] = tested on: male mice; experiment: Inhibition of arachidonic acid-induced ear inflammation in mice; type: in vivo; conditions: Mus musculus, po, 1 h
Method: Inhibition of Arachidonic Acid-induced Ear Inflammation in Mice (Opas E. E. et al.: J. Invest. Dermatol. 84, 253 (1985) Ear inflammation was induced in male mice by 20 μl of arachidonic acid dissolved in acetone (concentration 100 mg/ml). The mice were sacrificed 1 h after application of arachidonic acid and the ears were cut off by standard means. The other, vehicle-treated ear of the same animal served as a control. The degree of ear hyperemia and the weight of ear lobes were evaluated. Test compounds were administered orally 1 h before the induction of inflammation.

[3] = tested on: Wistar-Han rats; experiment: Inhibition of carrageenan edema; type: in vivo; conditions: Rattus norvegicus, dose 100 mg/kg; read-out: CE: inhibition of carrageenan-induced edema, % of inh.
[4] = tested on: bronchospasm induced by LTD4; experiment: Inhibition of bronchospasm induced by LTD4; type: in vivo; conditions: for Inhibition of bronchospasm induced by LTD4, % of inhibition: dose 100 mg/kg
Method: (§1) Inhibition of Allergic Bronchospasm Induced by […] (Compound 48/80 or Ovalbumin, Respectively)
(§2) The modified method of Kreutner W. et al (Krelutner W. et al.: Agents Actions 28, 253 (1989)) was used. Bronchoconstrictioin was induced by intravenous injection of 1 μg/kg LTD4 (3 mg/kg of compound […] or 0.35 mg/kg of ovalbumin, respectively). In the case of oval-bumin, the animals were senzitized by intraperitoneal injection of ovalbumin (100 mg/kg) 14 days before induction. The compounds tested were applied 5 min before the administration of the inductor; the vehiculum used for the application of compound tested was administered to the control group of animals. The tracheal pressure was determined in the intervals of 2, 4 and 10 minutes after induction. The effect was expressed in percentage inhibition of bronchospasm relative to the untreated control.

[5] = biological target: LTB4 receptor (Cavia porcellus, UniProt H0VYV8); experiment: LTB4 receptor binding study; conditions: 3H-LTB4, guinea-pig spleen membranes; for pIC50: read-out: Inh. of LTB4 rec. binding, IC50; for inhibition at 20 µM: read-out: Inh. of LTB4 rec. binding, %
Chain of LTB4 receptor (H0VYV8 1-348): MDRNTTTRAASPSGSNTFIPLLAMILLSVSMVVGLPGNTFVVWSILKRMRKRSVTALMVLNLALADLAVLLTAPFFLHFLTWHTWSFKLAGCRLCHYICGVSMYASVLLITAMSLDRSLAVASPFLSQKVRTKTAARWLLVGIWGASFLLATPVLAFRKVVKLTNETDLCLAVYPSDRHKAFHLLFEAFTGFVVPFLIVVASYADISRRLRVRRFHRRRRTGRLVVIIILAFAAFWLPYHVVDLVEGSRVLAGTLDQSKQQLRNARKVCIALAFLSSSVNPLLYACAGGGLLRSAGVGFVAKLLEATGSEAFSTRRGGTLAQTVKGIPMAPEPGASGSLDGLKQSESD
Method: LTB4 Receptor Binding Study
A slightly modified method of Cheng and coworkers (Cheng J. B. et al.: J. Pharm. Expl. Ther. 236, 126 (1986)) was used. The membrane fraction was prepared from male guinea-pig spleen; 2 mg of membranes were incubated with 0.3 nM ^3 H-LTB4 at 25° C. for 30 min in 100 μl of the incubated mixture. The nonspecific binding was determined in the presence of 0.1 μM LTB4. The membranes were filtered though Whatman GF/C paper and washed triply with buffer. The radioactivity was measured by liquid scintillation spectrometry, and the specific binding of ^3 H-LTB4 to the receptor was determined.

[6] = biological target: T1, LTD4 receptor (Cavia porcellus, UniProt Q2NNR5); experiment: LTD4 receptor binding study; conditions: 3H-LTD4, guinea-pig lung membranes; for pIC50: read-out: Inh. of LTD4 rec. binding, IC50
T1 construct: The membrane fraction was prepared from male guinea-pig lungs; from tissue; host or cells: male guinea-pig lung membranes
T1 sequence (Q2NNR5 1-340): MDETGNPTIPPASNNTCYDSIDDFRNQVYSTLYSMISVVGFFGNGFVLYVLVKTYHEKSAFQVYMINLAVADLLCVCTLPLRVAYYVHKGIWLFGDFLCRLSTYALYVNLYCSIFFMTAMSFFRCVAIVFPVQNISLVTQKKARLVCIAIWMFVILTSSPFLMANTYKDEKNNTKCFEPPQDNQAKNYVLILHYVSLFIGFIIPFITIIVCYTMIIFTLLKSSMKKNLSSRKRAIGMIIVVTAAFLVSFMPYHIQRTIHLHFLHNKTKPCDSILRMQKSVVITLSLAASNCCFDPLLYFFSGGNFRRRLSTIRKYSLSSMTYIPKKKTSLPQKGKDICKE
Method: LTD4 Receptor Binding Study
This study was performed according to the method of Burns and coworkers (Burns R. F. et al.: Life Sci. 33, 645 (1983)). The membrane fraction was prepared from male guinea-pig lungs, and 4 mg of this fraction were incubated with 0.4 nM ^3 H-LTD4 for 60 min at 25° C. in 100 μl of the incubated mixture. The nonspecific binding was determined in the presence of 0.1 μM LTD4. The filtration of the membranes, washing, and radioactivity measurement were as above.

[7] = tested on: rats; experiment: Inhibition of carrageenan-induced pleuritis in rats; type: in vivo; conditions: Rattus norvegicus, po, 4 h, dose 100 mg/kg, oral, values with mark n: p > 0.05
Method: Inhibition of Carrageenan-induced Pleuritis in Rats
(Hidaka T. J.: Pharm. Pharmacol. 38, 242 (1986) 1 ml of 0.5% carrageenan solution in saline was administered intrapleurally to experimental animals under mild ether anesthesia. Test drugs were administered in single oral dose 1 h before carrageenan injection, 4 h following the carrageenan application the rats were killed and exudate was withdrawn from opened pleural cavity. The volume of exudate, its cellularity and total cell number were determined.

[8] = tested on: LTB4 production in rat polymorphonuclear cells; experiment: Ex vivo inhibition of LTB4 production (LTB4 biosynthesis); type: cell-based; conditions: for IC50: Rattus norvegicus, read-out: Inh. of LTB4 biosynth., IC50; for Inh. of LTB4 biosynth., %: at 30 μg (%/μg)
Method: Ex vivo Inhibition of LTB4 Production The production of LTB4 was determined in rat polymorphonuclear cells from pleural exudate elicited by heat-activated rat serum (Palmer R. M. J., Salmon J. A.: Immunology 50, 65 (1983)). The cells were stimulated with the Ca ionophore A 23187 (Sigma) and incubated with various concentrations of the drugs tested. The sample containing only buffer was used for the determination of unaffected biosynthesis; the complete inhibition was measured in a sample with 100 μg of NDGA in 1 ml. LTB4 was determined in supernatant using a commercial RIA kit (Amersham).

[9] = tested on: bronchospasm induced by ovalbumin; experiment: Inhibition of bronchospasm induced by ovalbumin; type: in vivo; conditions: for Inhibition of bronchospasm induced by ovalbumin, % of inhibition: dose 100 mg/kg
Method: as §1, §2

[10] = values with mark n: p > 0.05, read-out: Ear edema, D: edema of ear lobe, % of inh.
[11] = values with mark n: p > 0.05, read-out: Ear edema, E: hyperemia of ear lobe, % of inh.
[12] = read-out: Inh. of LTD4 rec. binding, %
[13] = read-out: Experimental pleuritis, A: volume of exudate in pleural cavity, % of inh.
[14] = read-out: Experimental pleuritis, B: number of cells, % of inh.
[15] = read-out: Experimental pleuritis, C: cellularity in a volume unit, % of inh.

CCCc1c(OCCCCOc2cccc(Sc3ccc(C(=O)O)cc3)c2)ccc(C(C)=O)c1O [Compound 8, 4-(3-(4-(4-Acetyl-3-hydroxy-2-propylphenoxy)butoxy)phenylsulfanyl)benzoic Acid]
Antiox. effect, % of peroxidation inhibition [1]: 22% | inhibition in vivo at 200 mg/kg [2, 10]: 1% | inhibition in vivo at 200 mg/kg [2, 11]: 9% | inhibition in vivo at 100 mg/kg [3]: 24% | inhibition in vivo at 100 mg/kg ([4]; 4 min): 98% | pIC50 [5]: 5.43 | inhibition at 20 µM [5]: 100% | pIC50 [6]: 4.41 | inhibition at 100 µM [6, 12]: 69% | inhibition in vivo at 100 mg/kg [7, 13]: 7% | inhibition in vivo at 100 mg/kg [7, 14]: 18% | inhibition in vivo at 100 mg/kg [7, 15]: 11% | IC50 [8]: 0.52 µg/mL (≈ 1.05 µM) | Inh. of LTB4 biosynth., % [8]: 100%

CC(c1cc2ccccc2s1)N(O)C(N)=O (centres unmarked) [Zileuton, reference compound]
inhibition in vivo at 200 mg/kg [2, 10]: 9% | inhibition in vivo at 200 mg/kg [2, 11]: 13% | inhibition in vivo at 100 mg/kg [3]: 46% | inhibition in vivo at 100 mg/kg ([4]; 2 min): 10% | inhibition in vivo at 100 mg/kg ([4]; 4 min): 54% | inhibition in vivo at 100 mg/kg ([4]; 10 min): 75% | inhibition at 20 µM [5]: 28% | inhibition at 100 µM [6, 12]: 7% | inhibition in vivo at 100 mg/kg [7, 13]: 36% | inhibition in vivo at 100 mg/kg [7, 14]: 49% | inhibition in vivo at 100 mg/kg [7, 15]: 20% | IC50 [8]: 0.17 µg/mL (≈ 0.719 µM) | Inh. of LTB4 biosynth., % [8]: 100% | inhibition in vivo at 100 mg/kg ([9]; 2 min): 23% | inhibition in vivo at 100 mg/kg ([9]; 4 min): 28% | inhibition in vivo at 100 mg/kg ([9]; 10 min): 50%

CCCc1c(OCCCOc2cccc(Sc3ccc(C(=O)O)cc3)c2)ccc(C(C)=O)c1O [Compound 5, 4-(3-(3-(4-Acetyl-3-hydroxy-2-propylphenoxy)propoxy)phenylsulfanyl)benzoic Acid]
Antiox. effect, % of peroxidation inhibition [1]: 75% | inhibition in vivo at 200 mg/kg [2, 10]: 1% | inhibition in vivo at 200 mg/kg [2, 11]: 0% | inhibition in vivo at 100 mg/kg [3]: 14% | inhibition in vivo at 100 mg/kg ([4]; 4 min): 16% | pIC50 [5]: 5.02 | inhibition at 20 µM [5]: 65% | pIC50 [6]: 4.82 | inhibition at 100 µM [6, 12]: 97% | inhibition in vivo at 100 mg/kg [7, 13]: 10% | inhibition in vivo at 100 mg/kg [7, 14]: 46% | inhibition in vivo at 100 mg/kg [7, 15]: 61% | IC50 [8]: 0.05 µg/mL (≈ 0.104 µM) | Inh. of LTB4 biosynth., % [8]: 100%

CON1CC/C(=C\c2cc(C(C)(C)C)c(O)c(C(C)(C)C)c2)C1=O [E 5110, reference compound]
Inhibition of bronchospasm induced by LTD4, % of inhibition ([4]; 2 min): 45% | Inhibition of bronchospasm induced by LTD4, % of inhibition ([4]; 4 min): 55% | Inhibition of bronchospasm induced by LTD4, % of inhibition ([4]; 10 min): 58% | Inhibition of bronchospasm induced by ovalbumin, % of inhibition ([9]; 2 min): 74% | Inhibition of bronchospasm induced by ovalbumin, % of inhibition ([9]; 4 min): 71% | Inhibition of bronchospasm induced by ovalbumin, % of inhibition ([9]; 10 min): 69%

O=C(O)Cc1ccccc1Sc1cccc(OCc2ccc3cc(Cl)ccc3n2)c1 [Compound 31, 2-(3-(6-Chloroquinoline-2-ylmethoxy)phenylsulfanyl)phenylacetic Acid]
Antiox. effect, % of peroxidation inhibition [1]: 4% | inhibition in vivo at 200 mg/kg [2, 10]: 16% | inhibition in vivo at 200 mg/kg [2, 11]: 11% | inhibition in vivo at 100 mg/kg [3]: 13% | pIC50 [5]: 4.23 | inhibition at 20 µM [5]: 40% | pIC50 [6]: 5.94 | inhibition at 20 µM ([6]; at 20 μM, read-out: Inh. of LTD4 rec. binding, %): 83% | inhibition in vivo at 100 mg/kg [7, 13]: 24% | inhibition in vivo at 100 mg/kg [7, 14]: 75% | inhibition in vivo at 100 mg/kg [7, 15]: 39% | IC50 [8]: 0.46 µg/mL (≈ 1.06 µM) | Inh. of LTB4 biosynth., % [8]: 100%

CCCc1c(OCCCCOc2ccc(Sc3ccc([N+](=O)[O-])cc3C(=O)O)cc2)ccc(C(C)=O)c1O [Compound 10, 2-(4-(4-(4-Acetyl-3-hydroxy-2-propylphenoxy)butoxy)phenylsulfanyl)-5-nitrobenzoic Acid]
Antiox. effect, % of peroxidation inhibition [1]: 14% | inhibition in vivo at 200 mg/kg [2, 10]: 20% | inhibition in vivo at 200 mg/kg [2, 11]: 2% | inhibition in vivo at 100 mg/kg [3]: 22% | pIC50 [5]: 4.89 | inhibition at 20 µM [5]: 66% | pIC50 [6]: 4.82 | inhibition at 100 µM [6, 12]: 89% | inhibition in vivo at 100 mg/kg [7, 13]: 14% | inhibition in vivo at 100 mg/kg [7, 14]: 31% | inhibition in vivo at 100 mg/kg [7, 15]: 19% | Inh. of LTB4 biosynth., % [8]: 100%

CCCc1c(OCCOc2cccc(Sc3ccc(C(=O)O)cc3)c2)ccc(C(C)=O)c1O [Compound 2, 4-(3-(2-(4-Acetyl-3-hydroxy-2-propylphenoxy)ethyloxy)phenylsulfanyl)benzoicAcid]
Antiox. effect, % of peroxidation inhibition [1]: 41% | inhibition in vivo at 200 mg/kg [2, 10]: 18% | inhibition in vivo at 200 mg/kg [2, 11]: 2% | inhibition in vivo at 100 mg/kg [3]: 30% | pIC50 [5]: 5.28 | inhibition at 20 µM [5]: 98% | pIC50 [6]: 4.58 | inhibition at 100 µM [6, 12]: 88% | inhibition in vivo at 100 mg/kg [7, 13]: 2% | inhibition in vivo at 100 mg/kg [7, 14]: 43% | inhibition in vivo at 100 mg/kg [7, 15]: 46% | IC50 [8]: 0.8 µg/mL (≈ 1.71 µM) | Inh. of LTB4 biosynth., % [8]: 100%

CCCc1c(OCCCOc2ccc(Sc3ccc(C(=O)O)cc3)cc2)ccc(C(C)=O)c1O [Compound 3, 4-(4-(3-(4-Acetyl4-3-hydroxy-2-propylphenoxy)propoxy)phenylsulfanyl)benzoicAcid]
Antiox. effect, % of peroxidation inhibition [1]: 33% | inhibition in vivo at 200 mg/kg [2, 10]: 8% | inhibition in vivo at 200 mg/kg [2, 11]: 5% | inhibition in vivo at 100 mg/kg [3]: 32% | pIC50 [5]: 4.70 | inhibition at 20 µM [5]: 50% | pIC50 [6]: 4.72 | inhibition at 100 µM [6, 12]: 97% | inhibition in vivo at 100 mg/kg [7, 13]: 2% | inhibition in vivo at 100 mg/kg [7, 14]: 27% | inhibition in vivo at 100 mg/kg [7, 15]: 28% | IC50 [8]: 0.48 µg/mL (≈ 0.999 µM) | Inh. of LTB4 biosynth., % [8]: 100%
